Here are results for 62 compounds from a melting point compilation (Tetko et al.; mined from patent text by program, amines drawn as free bases though some values may be those of a salt).

What is called melting point is the temperature of the solid-liquid transition.

SMILES strings stand for the structures.

The compound `CC(=O)Nc1ccc(OCc2nc3ccccc3s2)cc1C` came in with a melting point of 179 to 182 °C. `CC(=O)c1cn(S(=O)(=O)c2ccccc2)c2nccc(Cl)c12`: the melting point lay within 160 to 162 °C.

Regarding `NC(=CC(=O)C1CC1)c1ccncc1`, the melting point is 159 to 166 °C.

On to `Clc1cc2nc(Cl)c(I)n2cc1Cl`, for which the melting point was in the range of 215 to 216 °C. Compound `CCOc1ccc2c(c1)c(CC(C)NC(=O)OC(C)(C)C)c1n2CCC1` (configuration not stated) displayed a melting point of 89 to 90 °C.

`O=C(O)c1ccc2oc(-c3ccc(C(F)(F)F)nc3)cc2c1`: the melting point was > 260 °C. For the compound `CCOC(=O)C1=C(O)c2cc3cc(OC)ccc3n2CC1`, the melting point was in the range of 157 to 160 °C. Consider `CN(C)c1ccc(OCC(=O)N[C@@H](CC(N)=O)C(=O)N[C@@H](Cc2ccccc2)[C@H](O)C(=O)N2CCC[C@H]2C(=O)NC(C)(C)C)cc1`, for which the melting point fell in the range of 102 to 104 °C. `CS(=O)(=O)c1c(N)nc(N)nc1Cl`: the melting point lay in the range of 256 to 258 °C. As for `N#Cc1ccc(-c2cc(-c3cc(C#N)ccc3Cl)on2)cc1`, the melting point fell in the range of 207 to 209 °C.

For the compound `OCc1cccc(Nc2nc(Oc3ccccc3)nc(Oc3ccc(Cl)cc3)n2)c1`, the melting point was in the range of 110 to 114 °C.

`CCCCNCCCOc1ccc(-c2ccc(C(=O)O)cc2)cc1-c1ccc2c(c1)C(C)(C)CCC2(C)C`: the melting point was determined as 238 °C. In turn, `C=CCc1cc(COC(=O)C(C)C)ccc1C#CC1(O)CN2CCC1CC2` (configuration not stated) yielded a melting point of 68 °C. Compound `CC(C)(C)N(C(=O)COc1nnc(C(F)(F)F)s1)c1ccc(Cl)cc1` came in with a melting point of 82 °C. For the compound `Cc1cc(-n2cncn2)ccc1N`, the melting point was in the range of 122 to 125 °C. Regarding `Cn1c(=O)[nH]c(N)c(NCc2ccccc2)c1=O`, the melting point lay in the range of 206 to 218 °C. In turn, `O=C(O)CCN1C(=O)c2cccc([N+](=O)[O-])c2C1=O` showed a melting point of 146 to 148 °C. For `Cc1cc(CC(=O)O)n(C)c1C(=O)c1ccc2n1CCC2` the value was 132 to 134 °C.

Consider `O=C(O)COc1cccc2c1OCc1sc(SC(c3ccccc3)c3ccccc3)nc1-2`, for which the melting point was 129 to 131 °C.

`COc1cccc(N(CCN2CCC(C(=O)c3ccc(F)cc3)CC2)C(=O)c2ccc(NC(N)=O)cc2)c1` had a melting point of 123 to 128 °C. Consider `C[Si](C)(C)O[Si]1(O[Si](C)(C)C)O[Si](O[Si](C)(C)C)(O[Si](C)(C)C)O[Si](O[Si](C)(C)C)(O[Si](C)(C)C)O1`, for which the melting point was found to be 103 °C. `CCCCCCCCCCCCn1nnc(C(C(=O)Nc2c(C(C)C)cccc2C(C)C)N2CCSCC2)n1` (configuration not stated) returned a melting point of 97 to 98 °C.

For `Cc1ccc(C=Cc2ccccc2)cc1C`, the melting point came out at 76 °C.

Regarding `C#CCOc1ccc(C(=O)O)c(C2=NC(=O)C(C)(C(C)C)N2)n1` (configuration not stated), the melting point fell in the range of 195 to 198 °C. `CCOC(=O)c1cnc2sc(-c3ccc([N+](=O)[O-])cc3)c(C)c2c1O` showed a melting point of 260 to 261 °C. Turning to `CON=Cc1ncn2c1[C@@H]1CCN1C(=O)c1c(Cl)cccc1-2`, the melting point was in the range of 199 to 200 °C. The compound `CC1Cc2nc(-c3ccccc3)[nH]c(=O)c2CC1S(=O)(=O)c1ccccc1` (configuration not stated) yielded a melting point of 247 °C. Compound `COC(=O)c1ncn(C2OC(COC(C)=O)C(OC(C)=O)C2OC(C)=O)n1` (configuration not stated) had a melting point of 107 to 109 °C. Turning to `CC(C)n1nc(-c2cnc(N)nc2-c2ccccc2)ccc1=O`, the melting point lay within 214 to 215 °C. `O=C1CCCCN1S(=O)(=O)c1ccc(N2CCCCCC2)cc1` had a melting point of 85 to 88 °C.

As to `COc1ccc2ccc(OS(=O)(=O)C(F)(F)F)cc2c1`, the melting point came out at 34 °C.

For `CCC(=O)c1cc([C@]2(c3cccc(-c4cccnc4F)c3)N=C(N)N(C)C2=O)cn1CC`, the melting point lay within 94 to 97 °C. The compound `O=C(CCC1CCC(=O)O1)NCCc1ccccc1` (configuration not stated) returned a melting point of 86 to 87 °C. The compound `CCCCc1nc(SC)c(C(=O)OCC)n1Cc1ccccc1-c1cccc(S(=O)(=O)NC#N)c1` showed a melting point of 108 °C.

In turn, `ON=Cc1ccc(-c2ccc(O)cc2)c2ccccc12` had a melting point of 200 °C. The figure for `COc1ccc(C(=O)Cc2cccs2)cc1` is 44 to 45.5 °C; for `CC(=O)NC(CC(=O)N[C@@H]1CN2C(=O)N(c3cc(Cl)nc(Cl)c3)C(=O)[C@@]2(Cc2ccc(OC(F)(F)F)cc2)C1)C(N)=O` (some centres not stated) it is 153 °C; for `O=C(CCCc1ccccc1)c1cc(O)c(O)c([N+](=O)[O-])c1` it is 118 to 119 °C. Turning to `CC(=O)NC1Cc2ccc(C(=O)CCl)cc2C1` (configuration not stated), the melting point is 173 to 174 °C.

In the case of `Oc1ncnc2c1c(-c1ccco1)nn2Cc1ccccc1`, the melting point was 242 °C. For `CCNC(=S)NS(=O)(=O)c1cc2c(cc1OC)OCCC2CNC(=O)c1cc(F)ccc1OC` (configuration not stated), the melting point worked out at 207 °C. The compound `CS(=O)(=O)Nc1cc(OCCNC2CCCC2)ccc1C(=O)Nc1ccccc1` yielded a melting point of 231 to 232 °C. Compound `COC(=O)CCC(=O)N1CCc2cc(S(=O)(=O)N3CCN(c4ccc(F)cc4)CC3)ccc21` displayed a melting point of 213 to 215 °C. As to `CN(C)Cc1cc2nc(C(=O)O)c(=O)[nH]c2cc1[N+](=O)[O-]`, the melting point is > 300 °C. `NC(=O)C(=O)Nc1nc(-c2cc(-c3ccccc3)on2)cs1` had a melting point of 246 to 247 °C. Compound `COc1ccc(OC)c(CC(=O)c2c(O)c3cccnc3n(-c3ccccc3)c2=O)c1` returned a melting point of 159 to 161 °C.

For `CNc1ccccc1C(=O)NCCCn1ccnc1`, the melting point lay in the range of 138 to 141 °C. `Cc1nc2cc3c(cc2c(=O)n1COC(=O)C(C)(C)C)C(Br)CC3` (configuration not stated) registered a melting point of 98 °C. `Fc1cc2c(Nc3ccc(OCc4ccccn4)c(Cl)c3)ncnc2cn1` came in with a melting point of 216 to 219 °C. In turn, `CCOC(=O)C1=Cc2cc(F)c(Cl)cc2N(Cc2ccccc2)C1` came in with a melting point of 211 to 212 °C. For `COc1ccc(C)cc1NC(=O)Nc1ccc(N2CCN(C(=O)Nc3ccc(OCCO)cc3Cl)C(C)C2)cc1` (configuration not stated) the value was 129 to 131 °C; for `O=C(O)CCCCc1cc2ccccc2n1-c1cccnc1`, 143 to 144 °C. For `O=C(Nc1cc2ncc(CN3CCCC3)cc2cc1F)c1ccc(-c2ccccc2)cc1` the value was 206 to 208 °C; for `COc1ccc(N(N)Cc2ccc(Cl)cc2)cc1`, 55 °C; for `CC(C)n1nc(-c2sc(NC(=O)CN(C)CCN(C)C)nc2-c2ccccc2)ccc1=O`, 155 to 157 °C. In the case of `CCc1cn(-c2nccs2)c2c1C(=O)CC(C)(C)C2`, the melting point fell in the range of 58 to 60 °C. Take `Cc1cccc(-c2nc(NC(=O)c3ccc(C(=O)O)cc3)sc2-c2ccncn2)c1`: the melting point is 380 to 381 °C. `Cc1nn(Cc2ccccc2)cc1C(=O)Nc1ccc(N2CCC(N3CCOCC3)CC2)c(C#N)c1` gave a melting point of 193 °C. `CCCc1nc2c(N)nc(C)c(C)c2n1CCCCCS(=O)(=O)c1ccc(C(F)(F)F)cc1` showed a melting point of 172 to 174 °C.

In the case of `Fc1ccc(CNc2nc(OCC(F)(F)F)nc(-c3ccccc3)n2)cc1`, the melting point was in the range of 170 to 172 °C. `CN(C(=O)OC(C)(C)C)c1sc(-c2cncc(F)c2)nc1I` displayed a melting point of 70 to 71 °C. `CC(C)N1CCN(c2ccc(Br)cn2)CC1` returned a melting point of 76 to 78 °C.
